The target of this assay is T1, AR (Homo sapiens, UniProt P10275).
T1 sequence (P10275 1-920): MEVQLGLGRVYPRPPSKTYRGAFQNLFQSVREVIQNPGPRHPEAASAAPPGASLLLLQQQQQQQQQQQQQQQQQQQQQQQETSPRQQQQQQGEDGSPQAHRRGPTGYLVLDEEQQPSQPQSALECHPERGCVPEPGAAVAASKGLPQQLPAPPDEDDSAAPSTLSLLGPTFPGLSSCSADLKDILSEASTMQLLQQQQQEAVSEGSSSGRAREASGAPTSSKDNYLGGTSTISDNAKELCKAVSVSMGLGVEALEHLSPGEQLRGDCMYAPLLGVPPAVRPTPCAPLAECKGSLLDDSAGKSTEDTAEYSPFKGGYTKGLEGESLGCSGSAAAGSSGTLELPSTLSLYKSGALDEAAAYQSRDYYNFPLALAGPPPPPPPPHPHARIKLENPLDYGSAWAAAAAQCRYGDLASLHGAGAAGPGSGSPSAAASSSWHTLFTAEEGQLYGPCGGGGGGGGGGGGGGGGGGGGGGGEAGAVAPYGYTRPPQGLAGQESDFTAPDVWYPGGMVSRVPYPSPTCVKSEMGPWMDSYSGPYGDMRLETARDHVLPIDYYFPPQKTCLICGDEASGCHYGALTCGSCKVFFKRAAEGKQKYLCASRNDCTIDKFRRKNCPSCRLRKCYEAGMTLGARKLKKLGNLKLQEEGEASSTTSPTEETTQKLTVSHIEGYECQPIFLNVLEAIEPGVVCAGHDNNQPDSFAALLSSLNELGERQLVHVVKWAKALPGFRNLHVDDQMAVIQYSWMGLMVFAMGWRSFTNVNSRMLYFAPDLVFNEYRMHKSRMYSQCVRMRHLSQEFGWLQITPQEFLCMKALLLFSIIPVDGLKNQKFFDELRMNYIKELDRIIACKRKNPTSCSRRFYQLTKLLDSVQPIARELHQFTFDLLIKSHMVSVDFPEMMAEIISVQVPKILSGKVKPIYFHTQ
Briefly: FRET-based AR conformation change reporter (CARY) in 3T3L1 adipose cells. Type of assay: cell-based, murine. On the set-up: Full length AR with cyan fluorescent protein (CFP) or yellow fluorescent protein (YFP) fused to either end (CARY); expressed in transfected cells. The following applies: 3T3L1 adipose-derived cells. The procedure:
Creation of stable C-AR-Y reporter cell lines. Cell lines listed above were either transfected with a plasmid or a virus containing the CFP-AR-YFP construct preceding an IRES and hygromycin resistance gene and clonal stable cell lines selected. Qualification criteria for the transfected cell lines were described by Jones et al, ACS Chem Biol, 3(7):412-8 (2008).
Screen for AR-modulators. Screening was performed essentially as described by Jones et al, ACS Chem Biol, 3(7):412-8 (2008). Briefly, C-AR-Y reporter GTI-7 were transferred to 96 well plates and treated with library compounds for 24 hours. […] The compounds to be tested were from the NCI/DTP Open Chemical Repository's Approved Oncology Drugs Set II, Diversity Set II and Mechanistic Set. […] After 24 hours, medium was aspirated and FRET was measured as previously described using a monochromator-based fluorescence plate reader (M1000, Tecan, Inc.). Jones et al, ACS Chem Biol, 3(7):412-8 (2008). […]
In order to identify potential cell-type selective AR modulators, the FRET-based assay of AR conformation change was utilized. […] This produces an accurate and quantifiable read-out of AR activity. […] Candidate hits were then further evaluated by dose response. […] In addition to FRET, AR transcriptional activity was also assessed in several cell lines by transfecting cells with a luciferase reporter driven by the human PSA promoter. […]

SMILES strings stand for the structures.

Consider `C=C(NC(=O)C(=C)NC(=O)c1csc(C2=N[C@@H]3c4csc(n4)[C@H]4NC(=O)c5csc(n5)[C@H]([C@](C)(O)[C@@H](C)O)NC(=O)[C@H]5CSC(=N5)/C(=C/C)NC(=O)[C@H]([C@@H](C)O)NC(=O)c5csc(n5)[C@]3(CC2)NC(=O)[C@H](C)NC(=O)C(=C)NC(=O)C(=C)NC(=O)[C@H](C(C)C)N[C@@H]2C=Cc3c([C@H](C)O)cc(nc3[C@H]2O)C(=O)O[C@@H]4C)n1)C(N)=O` [NSC285116, siomycin A], for which the “AR inhibitor activity in words” value is reported as “little to no activity”.

For the origin of these results see US11167007B2, “FOXM1 modulators and uses thereof” (City of Hope, priority 2016, dated 2021).
